Patent US10660578B2, “Combining electronic monitoring with inhaled pharmacological therapy to manage cardiac arrhythmias including atrial fibrillation” (InCarda Therapeutics, Inc., priority 2016, dated 2020)

How the values were obtained:
atrial fibrillation = assay: Administration of diltiazem by inhalation in atrial fibrillation; assay type: in vivo
Source text: Inhalation avoids the initial dilution of drug in the body as compared to intravenous or oral dosing. Inhalation also avoids first-pass metabolism, such as hepatic metabolism. For instance, calcium channel blockers, such as diltiazem, undergo significant hepatic metabolism when taken orally. Inhalation allows rapid delivery of the parent diltiazem compound to the heart as a bolus. […] Thus, administration by inhalation of diltiazem is useful for treating both atrial fibrillation and supraventricular tachycardia (SVT). In contrast, administration by IV of diltiazem is typically only used for converting SVT to normal sinus rhythm and in atrial fibrillation to reduce heart rate (not for converting to normal sinus rhythm). Inhalation also avoids red blood cell metabolism. For instance, the reduced dilution and short route associated with inhalation reduces red blood cell metabolism of esmolol. Inhalation may also avoid reduced blood pressure and fainting. For instance, IV administration of beta blockers, such as esmolol, and/or Class I antiarrhythmics such as flecainide, may reduce mean arterial blood pressure (MAP). Inhalation can allow rapid delivery of esmolol and/or flecainide without reducing MAP. […]

[1] = Assessment of different inhalers with flecainide acetate (FA) solution at 30 mg/ml; assay type: physicochemical
Method: Different inhalers were then tested to assess compatibility of material to the different materials of construction and different types of inhalers (Table 2).
The Trek S from PARI was able to deliver the same dose in about 3 minutes.

[2] = system: animal displaying atrial fibrillation; assay: Treatment of atrial fibrillation by intra-tracheal flecainide, monitored by smartphone ECG and Prucka System; assay type: in vivo; details: intra-tracheal administration of 0.75 mg/kg; animal in atrial fibrillation
Method: An exemplary smart phone app was installed on a smartphone in order to monitor the efficacy of FA at ceasing incidence of atrial fibrillation. The smartphone app allowed for communication between the smart phone and an electronic monitoring chip used to produce an ECG.
The smart phone device was then used to monitor the treatment efficacy of an intra-tracheal administration of 0.75 mg/kg flecainide in treating atrial fibrillation. FIG. 9 depicts an exemplary ECG produced from a smartphone as compared to a Prucka System in an animal displaying atrial fibrillation. Again, the traces show excellent correlation between the two devices.

PAF = details: cited from earlier work

SMILES | Effect on atrial fibrillation rhythm (atrial fibrillation) | Effect on heart rate (atrial fibrillation) | Time to deliver a 30-40 mg dose ([1]; Pari e-rapid or Lumiscope inhalers, 30-40 mg dose) | Time to deliver a 30-40 mg dose ([1]; Trek S from PARI, same 30-40 mg dose) | Effect on atrial fibrillation (ECG rhythm) [2] | Average time to terminate the PAF (PAF; oral bolus of 300 mg (max per day) at one time) [min] | Effectiveness of oral flecainide (PAF; oral)
COc1ccc([C@@H]2Sc3ccccc3N(CCN(C)C)C(=O)[C@@H]2OC(C)=O)cc1 [diltiazem] | converted atrial fibrillation to normal sinus rhythm | reduced heart rate |  |  |  |  | 
O=C(NCC1CCCCN1)c1cc(OCC(F)(F)F)ccc1OCC(F)(F)F (stereo not shown) [flecainide] |  |  | less than 2 minutes | about 3 minutes | return to sinus rhythm | 100 | 30-50%
